Data reported in paper PMC12736958 (Pharmaceutics, 2025).
Where “and” joins values, the source holds several entries; their conditions need not be identical. Equal entries are not always repeated.

Experiments:
[1] = cytotoxicity assay (CCK-8 cell viability); assay type: cell-based, canine; conditions: dog, MDCK cells, pH 7.4, MDCK cells, 4 h treatment, read-out: IC50 (cytotoxicity, Cur-equivalent)
Experimental: (§1) Madin-Darby Canine Kidney (MDCK) cells were seeded in 96-well plates (1 × 10^5 cells/well) and cultured for 24 h at 37 °C in complete DMEM (10% FBS, 1% penicillin–streptomycin) under 5% CO2. Cells were treated for 4 h with 100 µL of complete DMEM media (pH 7.4) containing crystalline Cur, amorphous Cur, binary Cur/P188 ASD (1:8, w/w), or ternary Cur/P188/TW80 or Cur/P188/SLS ASDs (1:8:1, w/w/w), at Cur-equivalent concentrations of 0 (vehicle), 2, 10, 25, 50, 100, and 200 μg/mL. After treatment, cells were washed three times with PBS (pH 7.4). Cell viability was assessed using a CCK-8 assay: 100 µL of serum-free DMEM and 10 µL of CCK-8 reagent were added to each well, followed by incubation for 2 h. Absorbance was measured at 450 nm using a Multiskan GO microplate reader (Thermo Fisher Scientific, Vantaa, Finland).
(§2) Cell viability was calculated according to the following equation:Viability (%) = [(As − Aᵦ)/(Ac − Aᵦ)] × 100% where
(§3) • As is the absorbance of experimental wells (cells + treatment + CCK-8); • Ac is the absorbance of control wells (cells + medium + CCK-8, no drug); • Aᵦ is the absorbance of blank wells (medium + CCK-8, no cells, no drug).
(§4) All experiments were performed in quintuplicate (n = 5).

[2] = test system: MDCK cells; test: cytotoxicity assay (CCK-8 cell viability); assay type: cell-based, canine; conditions: 4 h treatment
Experimental: as §1, §2, §3, §4

[3] = in vivo pharmacokinetic study in rats; parameters: species or system Sprague-Dawley (SD) rats; conditions: rat; for plasma concentration of Cur, individual animals: Rat1-Rat5
Experimental: Male Sprague-Dawley (SD) rats (200 ± 20 g) were supplied by SPF Biotechnology Co., Ltd. (Beijing, China) and housed under standard laboratory conditions throughout the study. All animals were housed in a controlled environment (22 ± 2 °C, 55 ± 10% humidity) under a 12/12 h light/dark cycle, with free access to a standard laboratory rodent diet and water. A 12 h fasting period was implemented prior to the experiment, with water permitted ad libitum. All animal procedures were performed in strict accordance with protocols approved by the Biological and Medical Ethics Committee of Minzu University of China.
After fasting for 12 h (with free access to water), SD rats (n = 25) were randomly divided into five groups (n = 5 per group). Group 1: crystalline Cur (i.v., dissolved in saline with 5% DMSO). Group 2: crystalline Cur (p.o., suspended in 0.5% CMC-Na). Group 3: Cur/P188 ASD (1:8, w/w; p.o.). Group 4: Cur/P188/TW80 ASD (1:8:1, w/w/w; p.o.). Group 5: Cur/P188/SLS ASD (1:8:1, w/w/w; p.o.). Group 1 received the formulation via tail vein injection, while Groups 2–5 were suspended in water (pH 7.0) and administered orally by gavage at a Cur-equivalent dose of 40 mg/kg. Blood samples (0.2 mL) were collected from each rat at 4, 7, 10, 20, and 30 min, and 1, 2, 4, and 24 h post-dosing. Plasma was separated by centrifugation (5000 rpm, 5 min, 4 °C) and stored at −80 °C until analysis.
Cur was extracted from 50 μL of plasma using 600 μL of ethyl acetate and quantified by LC-MS/MS, with diclofenac sodium (20 μL, 200 ng/mL) serving as the internal standard. Blank plasma was obtained from a separate control group (n = 5) that received water only. Analysis of these blank samples confirmed the absence of significant matrix interference, thereby validating the analytical method.
Cur quantification in cellular and rat plasma samples was carried out using a SCIEX QTRAP® 5500 LC-MS/MS system coupled with a SCIEX ExionLC^TM AC system (AB SCIEX, Framingham, MA, USA).
Separation was achieved on an Acquity UPLC® BEH C18 column (100 × 2.1 mm, 1.7 μm; Waters) maintained at 40 °C. The mobile phase consisted of (A) 0.1% formic acid in water and (B) acetonitrile (ACN), delivered at a flow rate of 0.14 mL/min with the following gradient program: 10% B (0–1.0 min), increased to 95% B (1.0–9.0 min), and returned to 10% B (9.0–12.0 min). The injection volume was 5 μL. The retention times were approximately 4.85 min for Cur and 6.70 min for diclofenac sodium, used as the internal standard (IS).
Mass spectrometric detection was performed using an IonDrive^TM Turbo V ion (SCIEX, Framingham, MA, USA) source operating in negative electrospray ionization (ESI) mode. Quantification was conducted via multiple reaction monitoring (MRM) at m/z 367.1→133.9 for Cur, and m/z 294.1→250.0 for diclofenac sodium (IS). The assay was linear over the concentration range of 2-500 ng/mL (R^2 > 0.999). All data were acquired in triplicate (n = 3) and processed using MultiQuant software version 3.0.2 (AB SCIEX).
Pharmacokinetic parameters were calculated using non-compartmental analysis with DAS 2.0 software (Boying Corporation, Beijing, China). Data analysis was performed using GraphPad Prism 10.1.2 software. The result is expressed as mean ± standard deviation (SD). For pairwise comparisons between groups, t-tests were conducted. For multiple group comparisons, one-way analysis of variance (ANOVA) was performed, followed by Tukey’s post hoc test for multiple comparisons. Prior to ANOVA, the assumptions of normality and homogeneity of variances were verified using the Shapiro–Wilk test and Bartlett’s test, respectively. p < 0.05 indicates statistically significant differences.

[4] = male, Sprague-Dawley, plasma, oral (o.p.), 40 mg/kg Cur-equivalent

COc1cc(/C=C/C(=O)CC(=O)/C=C/c2ccc(O)c(OC)c2)ccc1O [Crystalline Cur, Curcumin]
IC50 at 4 h [1]: 82.2 µg/mL
concentrations with negligible toxicity [2]: ≤ 25000 ng/mL
Cmax [3, 4]: 2.4 ± 0.4 ng/mL
Tmax [3, 4]: 0.2 h
half-life [3, 4]: 1.8 ± 0.4 h
MRT last ([3]; male, Sprague-Dawley, plasma, oral (o.p.), 40 mg/kg Cur-equivalent, read-out: MRT(0–24)): 6.3 ± 2 h
bioavailability ([3]; male, Sprague-Dawley, plasma, oral, 40 mg/kg, oral 40 mg/kg relative to intravenous administration, read-out: F (absolute oral bioavailability)): ~1%
concentration at 0.12 h ([3]; male, Sprague-Dawley, plasma, po, 40 mg/kg, oral (o.p.), 40 mg/kg, 0.12 h, Rat1-Rat5, read-out: plasma concentration of Cur, individual animals): 2.6 ng/mL
concentration at 0.17 h ([3]; male, Sprague-Dawley, plasma, po, 40 mg/kg, oral (o.p.), 40 mg/kg, 0.17 h, Rat1-Rat5, read-out: plasma concentration of Cur, individual animals): 2.8 ng/mL
F (absolute oral bioavailability) ([3]; oral 40 mg/kg relative to intravenous administration, 40 mg/kg): 0.97%
plasma concentration of Cur, individual animals ([3]; oral (o.p.), 40 mg/kg, 0.07 h): 1.7 ng/mL and 1.4 ng/mL (2×) and 0.7 ng/mL and 1.1 ng/mL
plasma concentration of Cur, individual animals ([3]; oral (o.p.), 40 mg/kg, 0.12 h): 2.6 ng/mL and 2.1 ng/mL and 1.6 ng/mL and 1.9 ng/mL
plasma concentration of Cur, individual animals ([3]; oral (o.p.), 40 mg/kg, 0.17 h): 2.8 ng/mL and 2.5 ng/mL and 2.1 ng/mL and 2.0 ng/mL
plasma concentration of Cur, individual animals ([3]; oral (o.p.), 40 mg/kg, 0.33 h): 2.5 ng/mL and 2.1 ng/mL and 2.0 ng/mL and 1.5 ng/mL and 1.0 ng/mL
plasma concentration of Cur, individual animals ([3]; oral (o.p.), 40 mg/kg, 0.5 h): 2.2 ng/mL and 1.4 ng/mL and 1.2 ng/mL (2×) and 0.542 ng/mL
plasma concentration of Cur, individual animals ([3]; oral (o.p.), 40 mg/kg, 1 h): 1.4 ng/mL and 0.7 ng/mL and 0.845 ng/mL and 0.9 ng/mL and 0.369 ng/mL
plasma concentration of Cur, individual animals ([3]; oral (o.p.), 40 mg/kg, 2 h): 0.64 ng/mL and 0.9 ng/mL and 0.5 ng/mL and 0.7 ng/mL and 0.2 ng/mL
plasma concentration of Cur, individual animals ([3]; oral (o.p.), 40 mg/kg, 4 h): 0.256 ng/mL and 0.433 ng/mL and 0.228 ng/mL and 0.35 ng/mL and 0.125 ng/mL
plasma concentration of Cur, individual animals ([3]; oral (o.p.), 40 mg/kg, 24 h): 0.08 ng/mL and 0.056 ng/mL and 0.2 ng/mL and 0.112 ng/mL and 0.1 ng/mL
